Source: article PMC12509328, “Human Internal Exposures of Bisphenol A and Six Data-Poor Analogs Predicted by Physiologically Based Kinetic Models with Multimodal Parametrization” (Environmental Science & Technology, 2025)
Where two headings read alike, the source gives them in different places. Marks after values point to notes of the source that are not given here.

Tests used:
[1] = Present human PBK model, model evaluation (scenarios 3 and 4); settings: for predicted AUC, times higher than observed: present model vs Teeguarden et al. (BPA dosing); for predicted blood C max as percent of the observed value: present model vs Teeguarden et al.; for predicted blood C max as percent of the observed value / predicted blood C max, times higher than in vivo observed: average
Excerpt: Several exposure scenarios were defined for parameter gathering, model evaluation, and internal exposure assessment (Table ). In scenarios 1 and 2, a rat PBK model was used to parametrize enterohepatic circulation (EHC) rates for application in human PBK models. […] Models were developed for four human physiologies: male (“man”) and female adults (“woman”), male “child”, and male “toddler” (Table S2). These models were selected based on available physiological data for key organs (thyroid, breasts, and testes), related to ED and the detected bisphenol exposure level. The repeated dose scheme from Karrer et al. was reproduced (scenarios 9 to 12) to model chronic exposure via three meals a day.
When not individually compartmentalized, organs were categorized as either slowly perfused tissues or rapidly perfused tissues and combined. Compartments related to the thyroid, testes, and breasts (depending on sex) were included in human but not rat models. Code was compiled in Berkeley Madonna 10 and Python (see Supporting Information and GitLab: https://gitlab.ethz.ch/eth_toxlab/pbk_model_bisphenol_analogs).
These PBK models were parametrized using a multimodal framework that integrates new approach methodology tools into a reproducible chemical-family wide workflow. This framework combines QSARs, in vitro experiments, and cross-species extrapolation to parametrize PBK models for a family of compounds, some of which were considered data-poor (Figure ). […] Organism-based parameters were tailored to account for species, sex, and age when possible (Figure and Table S2). − Parameters based on both the organism and chemical were partition coefficients, intestinal uptake, EHC rate, and glucuronidation kinetics (Figure ).
To address parameter uncertainty in concentrations that were predicted with human PBK models, 10,000 Monte Carlo (MC) simulations were performed. Each sensitive parameter was resampled according to probability distributions from the literature (Table S8). ,− To ensure physiological plausibility, EHC rates were constrained between 0 and 1, and the sum of all relative organ weights and the sum of all relative organ blood flows were kept constant. MC simulation outcomes were analyzed by comparing the first quartile, the median, and the third quartile values of concentrations per time point.

[2] = design: method as in Teeguarden et al.; settings: ref Teeguarden et al., cited from earlier work
[3] = blood; previous model, BPA; ref Karrer et al.; cited from earlier work
[4] = Glucuronidation kinetics in human liver S9; settings: human
Procedure: (§1) The glucuronidation kinetics of BPA, BPB, BPE, BPF, BPAF, and BPM were determined as described in the Supporting Information (Tables S6 and S7). Outliers were excluded using the Nalimov test.
(§2) Supplementary information on glucuronidation kinetics measurement
(§3) BPA, BPB, BPE and BPM were incubated with Corning® UltraPool™ Human Liver S9 in a buffer […]
(§4) containing UDPGA. […]
(§5) S9 protein). For each assay, an S9 aliquot was thawed on ice, and a reaction master mix was prepared with 0.1 mg S9 protein/mL in either 0.1 M (for BPA, BPB, BPAF, and BPF) or […] (for BPE and BPM) Tris-HCl, along with 10 mM UDPGA in 50 mM Tris-HCl (pH 7.4), 25 µg/mL alamethicin, and 10 mM magnesium chloride. Negative controls using 0.1 M Tris-HCl without UDPGA were included. Each reaction solution (100 µL) was pre-incubated for 5 min at 37° C with 350 rpm shaking. To this solution was added bisphenol solutions (0 to 20 mM) in DMSO in a ratio of 1:100 to achieve final bisphenol concentrations of 0 to 200 µM and 1% (v/v) […]
(§6) glucuronidation reaction was stopped by adding cold methanol (160 μL) and samples were kept at -20 °C for 1 h to precipitate proteins. The resulting mixture was centrifuged (10 min, 4 °C, 15,000 rcf). Supernatants were analyzed using High-performance liquid chromatography (HPLC) with diode array detector (DAD). […]
(§7) A gradient elution […]
(§8) was used with water containing 0.1% formic acid as eluent A and acetonitrile with 0.1% formic acid as eluent B. The initial condition of 15% eluent B was increased to 65% eluent B over 20 min, and then to 90% eluent B in the next 5 min. […]
(§9) and their glucuronides are provided in Supplementary Table S7. Calibration curves were set from concentrations ranging from 1 to 100 µM.

Human Liver S9 = test: Glucuronidation kinetics in human liver S9; settings: human liver S9 fractions; for Vmax hepatic glucuronidation / Km: GraphPad Prism fitting; for Ksi hepatic glucuronidation: substrate inhibition fit; for Km: read-out: Km hepatic glucuronidation
Procedure: as §1, §2, §3, §4, §5, §6, §7, §8, §9

[5] = tested on: human small intestinal S9; test: Glucuronidation in human small intestinal S9; format: in vitro ADME
Procedure: Supplementary information on glucuronidation kinetics measurement […]
µg/mL alamethicin, and 10 mM magnesium chloride. Negative controls using 0.1 M Tris-HCl […]
without UDPGA were included.
37° C with 350 rpm shaking. […]
at -20 °C for 1 h to precipitate proteins. The resulting mixture was centrifuged (10 min, 4 °C, 15,000 rcf). Supernatants were analyzed using High-performance liquid chromatography (HPLC) with diode array detector (DAD). Similar experiments were conducted for BPA, BPB, BPE, and […]
Bisphenol concentrations ranged
The retention times for the various bisphenols […]
as §9

[6] = design: method as in Thayer et al.; settings: ref Thayer et al., cited from earlier work
[7] = ref Yang et al.; cited from earlier work
[8] = Glucuronidation kinetics in rat liver S9; settings: male, Sprague-Dawley, rat, rat liver S9, pH 7.4
Procedure: as §1, §2
as §5, with “BPA, BPB, BPE and BPM were incubated with Corning® UltraPool™ Human Liver S9 in a buffer containing UDPGA. The S9 reagent (20 mg protein/mL) was aliquoted and stored at -80° C until use. BPAF and BPF were incubated similarly with rat liver S9 (Sprague-Dawley, male, 0.1 mg/mL S9 protein).” for “S9 protein).”
as §6, with “(DAD). Similar experiments were conducted for BPA, BPB, BPE, and BPM with human small intestinal S9 mix (0.025 to 0.25 mg/mL). Bisphenol concentrations ranged from 5 to 120 µM, and incubation times from 15 to 120 min.” for “(DAD).”
(§10) series HPLC system with a Waters XBridge BEH130 C18 column (4.6 × 150 mm, 3.5 μm particle size) for separation and a DAD set to a detection wavelength of λ = 280 nm. A gradient elution was used with water containing 0.1% formic acid as eluent A and acetonitrile with 0.1% formic acid as eluent B. The initial condition of 15% eluent B was increased to 65% eluent B over 20 min, and then to 90% eluent B in the next 5 min. […]
as §9

[9] = tested on: rat liver S9 (Sprague-Dawley, male); test: Glucuronidation kinetics in rat liver S9
Procedure: as §1, §2
as §5, with “BPA, BPB, BPE and BPM were incubated with Corning® UltraPool™ Human Liver S9 in a buffer containing UDPGA. The S9 reagent (20 mg protein/mL) was aliquoted and stored at -80° C until use. BPAF and BPF were incubated similarly with rat liver S9 (Sprague-Dawley, male, 0.1 mg/mL S9 protein).” for “S9 protein).”
as §6, with “(DAD). Similar experiments were conducted for BPA, BPB, BPE, and BPM with human small intestinal S9 mix (0.025 to 0.25 mg/mL). Bisphenol concentrations ranged from 5 to 120 µM, and incubation times from 15 to 120 min.” for “(DAD).”
as §10, §9

[10] = design: method as in Oh et al.; settings: blood, in vivo, 4 men and 3 women, ref Oh et al., cited from earlier work; for Cmax: 8.75 μg/kg bw d4-BPS in a chocolate cookie; for AUC / t max: 8.75 μg/kg bw d4-BPS
[11] = design: method as in Oh et al.; settings: blood; previous model, BPS; ref Oh et al.; cited from earlier work
[12] = blood, in vivo, 10 men, 30 μg/kg bw d6-BPA in soup
[13] = rat liver S9 fractions, GraphPad Prism fitting
[14] = present model vs Oh et al. (BPS dosing)

In the case of CC(C)(c1ccc(O)cc1)c1ccc(O[C@@H]2O[C@H](C(=O)O)[C@@H](O)[C@H](O)[C@H]2O)cc1 [BPA glucuronide], the “predicted AUC, times higher than observed” value [1] is given as “about 1.5 times”, the “predicted blood C max as percent of the observed value” [1] is given as 80% and the Cmax ([2]; blood, in vivo, 10 men, 30 μg/kg bw d6-BPA in 355 mL of soup, (range)) is given as 286 nM. The AUC [2, 12] was 680 (571–1′210) ^a nM x day, the t max [2, 12] was 1.2 (0.8–2.2) ^a h and the Cmax [3] was 610 nM. For the same compound, the t max [3] was 0.94 (0.93–0.97) ^c h.
In the case of CC(C)(c1ccc(O)cc1)c1ccc(O)cc1 [BPA, bisphenol A], the “predicted AUC, times higher than observed” value [1] was “about 1.5 times”, the “predicted blood C max as percent of the observed value” [1] was 63% and the Km ([4]; pH 7.4) was 13.1 µM. The Vmax hepatic glucuronidation (Human Liver S9) was 4.06 nmol/min/mg, the “glucuronidation rates in small intestinal S9 fractions” value [5] was “negligible” and the urinary excretion ([2]; at 24 h, range 90–116%) was 104%. The AUC [2, 12] was 2.5 (1.4–5.7) ^a nM x day, the “urinary fraction of unconjugated BPA” value [2] was 0.03% and the urinary excretion ([6]; at 24 h, range 92–100%) was 98%. The cumulative urinary excretion ([6]; by 48 h) was 80–110%, the “urinary fraction of unconjugated BPA” value [6] was 0.029% and the “total BPA excreted” value ([6]; within 12 h post exposure, range 86–98%) was 94%. The AUC [3] was 4.15 (2.91–5.15) ^c nM x day, the Cmax [3] was 1.31 nM and the t max [3] was 0.72 (0.67–0.77) ^c h. For the same compound, the “glucuronidated BPA undergoing EHC” value [7] was “ten”.
Oc1ccc(C(c2ccc(O)cc2)(C(F)(F)F)C(F)(F)F)cc1 [BPAF, Bisphenol AF] gave a Km [8] of 49.7 µM, a Vmax hepatic glucuronidation [9, 13] of 7.10 nmol/min/mg and a Ksi hepatic glucuronidation ([9]; rat liver S9 fractions, substrate inhibition fit) of 27.63 µM.
CCC(C)(c1ccc(O)cc1)c1ccc(O)cc1 [BPB, Bisphenol B] showed a Km ([4]; human liver S9, pH 7.4) of 12.3 µM, a Vmax hepatic glucuronidation (Human Liver S9) of 5.81 nmol/min/mg and a Ksi hepatic glucuronidation (Human Liver S9) of 21.48 µM. The “glucuronidation rates in small intestinal S9 fractions” value [5] was “negligible”.
In the case of CC(c1ccc(O)cc1)c1ccc(O)cc1 [BPE, Bisphenol E], the Vmax hepatic glucuronidation (Human Liver S9) was 3.42 nmol/min/mg, the Ksi hepatic glucuronidation (Human Liver S9) was 280.6 µM and the Km (Human Liver S9) was 51.3 µM. The “glucuronidation rates in small intestinal S9 fractions” value [5] was “negligible”.
Work on Oc1ccc(Cc2ccc(O)cc2)cc1 [BPF, Bisphenol F] yielded a Vmax hepatic glucuronidation [9, 13] of 1.17 nmol/min/mg, a Vmax hepatic glucuronidation ([9]; rat model code) of 1.173 nmol/min/mg and a Km ([9]; read-out: Km hepatic glucuronidation, rat liver S9 fractions, GraphPad Prism fitting) of 47.5 µM.
CC(C)(c1ccc(O)cc1)c1cccc(C(C)(C)c2ccc(O)cc2)c1 [BPM, Bisphenol M] gave a Vmax hepatic glucuronidation (Human Liver S9) of 4.89 nmol/min/mg, a Ksi hepatic glucuronidation (Human Liver S9) of 51.75 µM and a Km (Human Liver S9) of 20.2 µM. For the same compound, the “glucuronidation rates in small intestinal S9 fractions” value [5] was “negligible”.
For O=C(O)[C@H]1O[C@@H](Oc2ccc(S(=O)(=O)c3ccc(O)cc3)cc2)[C@H](O)[C@@H](O)[C@@H]1O [BPS glucuronide], the “mean predicted AUC, times higher than in vivo” value [1, 14] is listed as “about 2.4 times”, the “predicted blood C max, times higher than in vivo observed” value [1, 14] is listed as 2.8 times and the Cmax [10] is listed as 10.5 nM. For the same compound, the AUC [10] was 78.7 (54–103) ^d nM x day and the t max [10] was 1.0 (1.0–1.0) ^d h.
In the case of O=S(=O)(c1ccc(O)cc1)c1ccc(O)cc1 [BPS, Bisphenol S], the “delay of average predicted t max vs measure” value [1, 14] is listed as 1.7 h, the “predicted blood C max, times higher than in vivo observed” value [1, 14] is listed as 1.6 times and the Cmax [10] is listed as 8.79 nM. The AUC [10] was 40 − , ^d nM x day, the t max [10] was 0.5 (0.25–0.5) ^d h and the AUC [11] was 39.8 − ^, ^e nM x day. For the same compound, the Cmax [11] was 10.1 nM and the t max [11] was 0.57 (0.26–0.88) ^e h.
